Laboratory results from ChEMBL document CHEMBL3745633, “Synthesis of the biotinylated anti-HIV compound BMMP and the target identification study” (Bioorg Med Chem Lett, 2016).
Calls of active or inactive are those of the source. The calls are words filed in the database; no cut-off is given here.

Assays:
[1] = system: Human immunodeficiency virus 1; assay: Antiviral activity against HIV-1 NL4-3 infected in human M8166 cells assessed as inhibition of viral replication at 20 uM after 5 days by p24 ELISA; assay type: functional, organism-based
HEK-293T [2] = assay: Binding affinity to HIV-1 NL4-3 capsid protein expressed in HEK293T cells by surface plasmon resonance analysis; conditions: Human immunodeficiency virus 1
HEK-293T [3] = assay: Binding affinity to HIV-1 NL4-3 Pr55Gag expressed in HEK293T cells by surface plasmon resonance analysis; conditions: Human immunodeficiency virus 1

Structure (SMILES) | inhibition [1] | Activity (HEK-293T [2]) | Activity (HEK-293T [3])
NCCCCCCc1ccnc(SCc2nc3ccccc3s2)n1 | Active | – | –
COC(=O)CCCC[C@@H]1SC[C@@H]2NC(=O)N[C@@H]21 | inactive | – | –
O=C(CCCC[C@@H]1SC[C@@H]2NC(=O)N[C@@H]21)NCCCCCCc1ccnc(SCc2nc3ccccc3s2)n1 | Active | inactive | inactive
Cc1ccnc(SCc2nc3ccccc3s2)n1 | Active | – | –
